In PubChem BioAssay (NCI):
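Step 1: Grow cells in 96-well plates. Step 2: Expose to compound for 48 hours at 5 concentrations. Step 3: Interpolate endpoints linearly; if unreached, use highest concentration. Here, GI50 denotes the concentration required for 50% inhibition of growth. TGI: concentration producing complete growth inhibition.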

Experiments:
Test in all cases: inhibition of tumour cell growth, NCI panel, 48 h
IGROV1 ovarian = system: IGROV1 ovarian
HCT-15 colon = system: HCT-15 colon
UACC-257 melanoma = system: UACC-257 melanoma
M14 melanoma = system: M14 melanoma
HOP-92 NSCLC = system: HOP-92 NSCLC
HT29 colon = system: HT29 colon
SF-295 CNS = system: SF-295 CNS
HCC-2998 colon = system: HCC-2998 colon
OVCAR-5 ovarian = system: OVCAR-5 ovarian
LOX IMVI melanoma = system: LOX IMVI melanoma

SMILES | TGI (IGROV1 ovarian) | TGI (HCT-15 colon) | TGI (UACC-257 melanoma) | TGI (M14 melanoma) | TGI (HOP-92 NSCLC) | TGI (HT29 colon) | TGI (SF-295 CNS) | GI50 (HCC-2998 colon) | TGI (HCC-2998 colon) | GI50 (IGROV1 ovarian) | GI50 (OVCAR-5 ovarian) | TGI (OVCAR-5 ovarian) | GI50 (HCT-15 colon) | GI50 (UACC-257 melanoma) | GI50 (M14 melanoma) | GI50 (HOP-92 NSCLC) | GI50 (HT29 colon) | GI50 (LOX IMVI melanoma) | TGI (LOX IMVI melanoma) | GI50 (SF-295 CNS)
COC[C@H](C)N=CN1CCc2ccccc2C1(Cc1ccccc1)Cc1ccccc1 | > 100 µM | 39.1 µM | 28.3 µM | 22.7 µM | 29.8 µM | 20.1 µM | 28.3 µM |  |  |  |  |  |  |  |  |  |  |  |  | 
CN1CCN(Cc2cc(NC(=O)c3cccc(C#Cc4cccc5[nH]nc(N)c45)c3)cc(C(F)(F)F)c2)CC1 | 4.07 µM | 3.37 µM | 3.39 µM | 2.9 µM | 2.63 µM | 2.93 µM |  | 1.99 µM | 3.66 µM | 2.05 µM | 1.5 µM | 2.98 µM | 1.81 µM | 1.83 µM | 1.35 µM | 1.24 µM | 1.53 µM |  |  | 
Fc1ccc(Nc2nc3ccccc3c3occc23)cc1 | 35.1 µM | 21.4 µM | 28.3 µM | 13.7 µM | 19.4 µM |  | 13.1 µM | 1.96 µM | 7.31 µM | 2.62 µM | 10.1 µM | 21.8 µM | 9.58 µM | 13.8 µM | 0.873 µM | 5.8 µM |  | 3.41 µM | 17.9 µM | 3.39 µM
C=C1C(=O)O[C@H]2[C@H]1CC/C(COC(=O)NCCCCCCCCNC(=O)OC/C1=C/CC[C@@]3(C)O[C@H]3[C@H]3OC(=O)C(=C)[C@@H]3CC1)=C\CC[C@@]1(C)O[C@@H]21 | 2.61 µM | 1.41 µM | 2.82 µM | 0.8 µM | 0.551 µM | 0.554 µM | 4.82 µM | 1.2 µM | 2.52 µM | 1.01 µM | 0.269 µM | 0.912 µM | 0.346 µM | 0.848 µM | 0.272 µM | 0.177 µM | 0.228 µM | 0.178 µM | 0.368 µM | 1.95 µM
CN(C)CCOC(=O)Nc1nc2ccc(Sc3ccccc3)cc2[nH]1 | 27.6 µM | 16.2 µM | 29.4 µM | 9.29 µM | 6.73 µM | 10.7 µM | 13.4 µM | 3.31 µM | 14.1 µM | 6.32 µM | 4.22 µM | 21.1 µM | 1.96 µM | 13.4 µM | 2.28 µM | 1.33 µM | 3.57 µM | 4.26 µM | 15.9 µM | 2.96 µM
CN(C)c1ccc(N=C2C=CC(=O)c3ccccc32)cc1 | 9.28 µM | 17.7 µM | 5.45 µM | 3.61 µM | 18.7 µM | 12.2 µM | 3.66 µM | 5.05 µM | 16.7 µM | 2.76 µM | 12.6 µM | 28.8 µM | 2.36 µM | 2.21 µM | 1.79 µM | 5.06 µM | 3.62 µM | 1.78 µM | 4.13 µM | 1.68 µM
CCN(CC)CCNc1ccc2nc(C)n3c4ccc(O)cc4c(=O)c1c23 | 15.5 µM | 5.83 µM | 21.2 µM | 16.2 µM |  | 1.57 µM | 9.81 µM |  | 1.99 µM |  |  | 8.1 µM |  |  |  |  |  |  | 2.04 µM | 
CCOC(=O)CNc1nnnn1C1OC(CO)C(O)C1O (centres undefined) | > 100 µM | > 100 µM | > 100 µM | > 100 µM |  | > 100 µM | > 100 µM |  | > 100 µM |  |  | > 100 µM |  |  |  |  |  |  | > 100 µM | 
[O-]c1c2c(nn1-c1ccc(Cl)cc1)c1ccccc1c[n+]2Cc1ccccc1 | > 100 µM |  | > 100 µM | > 100 µM |  | > 100 µM | > 100 µM |  | > 100 µM |  |  | > 100 µM |  |  |  |  |  |  | > 100 µM | 
C/C(=N\NC(=O)CC(=O)N(C(=O)c1ccc(Cl)cc1)c1ccc(C)cc1)c1ccccc1O | > 100 µM | > 100 µM | > 100 µM | > 100 µM |  | > 100 µM | > 100 µM |  |  |  |  | > 100 µM |  |  |  |  |  |  |  | 
CCCCN(CCCC)CCCn1cnc2ncccc2c1=O | > 100 µM |  |  | > 100 µM | > 100 µM | > 100 µM | > 100 µM |  | > 100 µM |  |  | > 100 µM |  |  |  |  |  |  | > 100 µM | 
COC(=O)C(=O)C(C(=O)C(=O)Nc1cc(C)ccc1C)c1nc2ccc(C(=O)c3ccccc3)cc2[nH]c1=O (centres undefined) | > 100 µM | > 100 µM | > 100 µM | > 100 µM | 91.8 µM |  | > 100 µM |  | > 100 µM |  |  | > 100 µM |  |  |  |  |  |  |  | 
C[Si](C)(C)C(Sc1ccccc1)(Sc1ccccc1)Sc1ccccc1 |  | > 100 µM | > 100 µM |  | 94.1 µM |  | > 100 µM |  | > 100 µM |  |  |  |  |  |  |  |  |  | > 100 µM | 
Cn1c2ccccc2c2c(=O)n(CCCC(=O)OC(=NC3CCCCC3)NC3CCCCC3)c3c(-c4ccccc4)nnn3c21 | 94.4 µM | > 100 µM | > 100 µM | > 100 µM |  | > 100 µM | > 100 µM | > 100 µM | > 100 µM | 15.4 µM | > 100 µM | > 100 µM | > 100 µM | > 100 µM | > 100 µM |  | > 100 µM | > 100 µM | > 100 µM | 79 µM
COC(=O)/C(=N\NC(N)=O)C(C(=O)C=C(C)C)C(=O)C(=O)Nc1ccc(Cl)c(Cl)c1 (centres undefined) | > 100 µM | > 100 µM | > 100 µM | > 100 µM |  | > 100 µM | > 100 µM |  | > 100 µM |  |  | > 100 µM |  |  |  |  |  |  | > 100 µM | 
CC1C2CC=CC(=O)[C@@]2(C)CCC12OCCO2 (some centres undefined) | > 100 µM |  | > 100 µM | > 100 µM | > 100 µM | > 100 µM | > 100 µM |  | > 100 µM |  |  | > 100 µM |  |  |  |  |  |  |  | 
CC1CC[P+](c2ccccc2)(c2ccccc2)CC1 | > 100 µM | > 100 µM | > 100 µM | > 100 µM |  | > 100 µM | > 100 µM |  | > 100 µM |  |  | > 100 µM |  |  |  |  |  |  | > 100 µM | 
COc1cc(/C=C2/C(=O)N(C(=O)OCc3ccccc3)C(Cc3cc(OC)c(OC)c(C)c3OC)C(=O)N2Cc2ccccc2)c(OC)c(C)c1OC (centres undefined) | > 100 µM |  | > 100 µM | > 100 µM | > 100 µM | > 100 µM | > 100 µM |  | > 100 µM |  |  | > 100 µM |  |  |  |  |  |  | > 100 µM | 
